Reference: patent publication US20170209605A1, “CARBOHYDRATE FUNCTIONALIZED CATANIONIC SURFACTANT VESICLES FOR DRUG DELIVERY” (University of Maryland, College Park, priority 2007, published 2017)

Experiment: Incorporation of glycoconjugate into SDBS-rich vesicles (SEC, colorimetric detection)
Format: physicochemical
Conditions: SDBS/CTAT vesicles, twelve carbon tail
From the text: In an experiment, glycoconjugates consisting of eight carbon tails were used. In all SDBS-rich vesicle test cases 18-25% of the conjugate eluted with the vesicle fractions. At the incorporation levels summarized in Table 1, the ratio of carbohydrate conjugate to surfactant is approximately 1:100. […] In another experiment, a glucose glycoconjugate with a twelve carbon tail, n-dodecyl-β-D-glucopyranoside (C12-glucose), was used. […] The method for preparing these vesicles is now described. Vesicles were prepared with the surfactants […], and C12-glu. […] Total surfactant concentration was kept constant at 27 mM. The mole ratio of SDBS to CTAT was 3:1 in all cases (70:30 w/w). For vesicle samples containing different mole fractions of C12-glu, the amount of SDBS and CTAT was adjusted accordingly to keep the stated ratio of ionic surfactants constant. […] Samples were then passed through a 0.45 μm syringe filter to remove impurity particles such as dust.

- share of the vesicle bilayer that can be composed of the glycoconjugate: up to 40 mole percent
Structure (SMILES): CCCCCCCCCCCCO[C@@H]1O[C@H](CO)[C@@H](O)[C@H](O)[C@H]1O [C12-glucose, n-dodecyl-β-D-glucopyranoside]
